Results published in patent publication US9040714B2 (MannKind Corporation, priority 2010, dated 2015).
Where two headings read alike, the source gives them in different places.

Key:
[1] = tested on: IRE-1α-mediated XBP-1 splicing in human myeloma MM.1s cells; assay: Cellular EC50: endogenous XBP-1 splicing in myeloma cells by RT-PCR (DTT stress); format: cell-based; details: MM1.S, read-out: EC50_av
Protocol: Human myeloma MM.1s cells are incubated with a compound for 1.25 hours before stressing the cells with 2 mM dithiothreitol (DTT). After an additional 45 minutes (2 hours total) with compound and DTT, the cells are harvested with TRIZOL® (a mono-phasic solution of phenol and guanidine isothiocyanate), and total RNA is prepared as directed by the manufacturer (Invitrogen). Human XBP-1 is amplified by RT-PCR with the following primers, which flank the 26 base unconventional intron excised by IRE-1α:
RT-PCR of unstressed (U) cells then generates the upper band. When cells are stressed (S) with the endoplasmic reticulum (ER) stressing agent DTT, IRE-1α is activated due to accumulating unfolded protein and the resulting RT-PCR, product is 26 base pairs shorter.
Compounds which pass specificity assays are assayed for cellular EC50 using endogenous XBP-1 splicing in myeloma cells. XBP-1 is regulated through the excision of a 26 nucleotide intron from the XBP-1 mRNA by the highly specific endoribonuclease activity of IRE-1α. […] This splicing event is used to measure IRE-1α activity on XBP-1 mRNA in cells and tissues.
Briefly, compounds are incubated in the presence or absence of an ER stress agent (e.g., DTT), and the ratio of XBP-1u (unspliced) to XBP-1 s (spliced) is quantified by RT-PCR. The ED50 is determined as the 50% XBP-1s to total XPB-1 levels.

[2] = target: human IRE-1α (GST-IRE-1α) (Homo sapiens (Human), UniProt O75460); assay: IRE-1α assay in vitro: cleavage of Cy5/BHQ2-labelled mini-XBP-1 mRNA stem-loop substrate; format: biochemical; details: average IC50 for inhibition of IRE-1α
Protocol: In some embodiments IRE-la inhibitor compounds form a complex with IRE-1α. […] Other substrates also can be used to detect cleavage. See US 2007/0105123.
A fusion protein comprising glutathione S transferase (GST) and human IRE-1α (GST-IRE-1α) obtained from a 500 ml baculovirus-infected insect cell culture can be used to measure IRE-1α activity in vitro.
Five μl of a reaction mixture comprising IX reaction buffer (5× reaction buffer is 100 mM Hepes pH 7.5, 250 mM KOAc, 2.5 mM MgCl2), 3 mM DTT, and 0.4% polyethylene glycol water is added to each well of 384 well plates. Twenty-five nanoliters of a 1 mM test compound solution are added to test wells. Three μl of a […] IRE-1α preparation are added to each test well and to positive control wells (final concentration 5.82 ng/well). Negative control wells contain only reaction mixture and test compound.
After spinning the plates at 1200 rpm for 30 seconds, 3 μl of an IRE-1α human mini-XBP-1 mRNA stem-loop substrate 5′-[…]-3′ (SEQ ID NO:1), labeled with the fluorescent dye Cy5 at the 5′ end and Black Hole Quencher 2 (BH2) at the 3′ end, are added to each well of a control plate. The plates are again spun at 1200 rpm for 30 seconds. Final concentrations for the assay are: 63 nM IRE-1α substrate, 5.82 ng IRE-1α protein, and 2.5 μM test compound.
The plates are covered with lids and incubated for one hour at 30° C. The plates are then transferred to an ACQUEST™ microplate reader. Data is analyzed using data analysis software, and the percent activity of IRE-1α is calculated.
IC50 for inhibition of IRE-1α of compounds identified in Table 1 was measured as described in EXAMPLE 35.

[3] = average cellular EC50, XBP-1 splicing in myeloma cells

Chain of human IRE-1α (GST-IRE-1α) (O75460 19-977): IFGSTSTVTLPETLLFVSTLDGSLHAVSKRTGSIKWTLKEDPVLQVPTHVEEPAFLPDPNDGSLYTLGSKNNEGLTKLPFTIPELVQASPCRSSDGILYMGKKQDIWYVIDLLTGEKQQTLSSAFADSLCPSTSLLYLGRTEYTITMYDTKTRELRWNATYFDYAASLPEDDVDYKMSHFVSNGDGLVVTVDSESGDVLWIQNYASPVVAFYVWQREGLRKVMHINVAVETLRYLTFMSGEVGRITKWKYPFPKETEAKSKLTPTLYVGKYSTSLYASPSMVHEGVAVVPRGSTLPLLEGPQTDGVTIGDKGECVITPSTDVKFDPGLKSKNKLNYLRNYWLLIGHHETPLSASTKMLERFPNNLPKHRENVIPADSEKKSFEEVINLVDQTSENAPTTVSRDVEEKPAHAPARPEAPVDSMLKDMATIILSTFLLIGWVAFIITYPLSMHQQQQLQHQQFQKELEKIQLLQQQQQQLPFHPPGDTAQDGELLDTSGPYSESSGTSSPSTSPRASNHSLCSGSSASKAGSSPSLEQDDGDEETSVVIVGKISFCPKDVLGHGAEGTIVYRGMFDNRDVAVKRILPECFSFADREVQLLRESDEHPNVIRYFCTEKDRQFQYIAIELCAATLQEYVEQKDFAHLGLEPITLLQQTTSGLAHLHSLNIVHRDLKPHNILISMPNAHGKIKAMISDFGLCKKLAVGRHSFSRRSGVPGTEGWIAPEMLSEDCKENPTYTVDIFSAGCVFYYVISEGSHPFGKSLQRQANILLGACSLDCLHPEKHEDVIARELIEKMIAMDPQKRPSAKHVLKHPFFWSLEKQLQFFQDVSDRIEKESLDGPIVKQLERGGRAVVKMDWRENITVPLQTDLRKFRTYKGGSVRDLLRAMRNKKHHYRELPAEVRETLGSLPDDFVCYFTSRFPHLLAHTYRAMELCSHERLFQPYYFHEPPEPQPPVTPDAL

Row | Compound | EC50 [1] | IC50 [2] | EC50 [1, 3]
1 | Cc1c(-c2cccc(C(=O)N3CCN(C)CC3)c2)c(=O)oc2c(C=O)c(O)ccc12 [Example 10] | < 10 µM | < 0.1 µM | 
2 | Cc1c(-c2cccc(C(=O)NCCN3CCOCC3)c2)c(=O)oc2c(C=O)c(O)ccc12 [Example 11] |  | < 0.1 µM | < 10 µM
3 | Cc1c(-c2ccc(C(=O)N3CCOCC3)cc2)c(=O)oc2c(C=O)c(O)ccc12 [Example 12] |  | < 0.1 µM | < 10 µM
4 | Cc1c(-c2ccc(N3CCN(C)CC3)nc2)c(=O)oc2c(C=O)c(O)ccc12 [Example 14] |  | < 0.1 µM | < 10 µM
5 | Cc1c(-c2ccc(C(=O)N(C)C)cc2)c(=O)oc2c(C=O)c(O)ccc12 [Example 17] |  | < 0.1 µM | < 10 µM
6 | Cc1c(-c2cccc(C(=O)N(C)C)c2)c(=O)oc2c(C=O)c(O)ccc12 [Example 20] | > 10 µM | < 1 µM | 
7 | Cc1cc(=O)oc2c(C=O)c(O)c(Cl)cc12 [Example 22] |  | < 0.1 µM | < 10 µM
8 | Cc1c(-c2ccc(N3CCN(C)CC3)cc2)c(=O)oc2c(C=O)c(O)c(F)cc12 [Example 24] |  | < 0.1 µM | < 10 µM
9 | O=Cc1c(O)ccc2c1CCN(Cc1ccccc1)C2 [Example 28] |  | < 10 µM | > 10 µM
10 | CN1CCN(C(=O)c2cnc(N3CCc4c(ccc(O)c4C=O)C3)s2)CC1 [Example 33] | > 10 µM | < 10 µM | 
11 | Cc1nc(N2CCc3c(ccc(O)c3C=O)C2)sc1C(=O)NC1CCNCC1 [Example 35] |  | < 0.1 µM | > 10 µM
12 | Cc1nc(N2CCc3c(ccc(O)c3C=O)C2)sc1C(=O)NC1CCN(C)CC1 [Example 36] |  | < 1 µM | > 10 µM
13 | Cc1nc(N2CCc3c(ccc(O)c3C=O)C2)sc1C(=O)NCCN1CCOCC1 [Example 37] |  | < 0.1 µM | > 10 µM
14 | CN1CCN(c2ncc(C(=O)N3CCc4c(ccc(O)c4C=O)C3)s2)CC1 [Example 38] |  | < 0.1 µM | > 10 µM
15 | CCc1cc2c(=O)c(-c3nc(C)cs3)coc2c(C=O)c1O [Example 39] |  | < 0.1 µM | > 10 µM
16 | O=Cc1c(O)ccc2c(=O)c(-c3cnn(-c4ccccc4)c3)coc12 [Example 40] |  | < 1 µM | > 10 µM
17 | CN1CCN(C(=O)c2ccc(-c3ccc4c(C=O)c(O)ccc4n3)cc2)CC1 [Example 41] |  | < 1 µM | < 10 µM
18 | CN1CCN(C(=O)c2cccc(-c3ccc4c(C=O)c(O)ccc4n3)c2)CC1 [Example 42] |  | < 1 µM | < 10 µM
19 | O=Cc1c(O)ccc2nc(-c3ccc(C(=O)N4CCOCC4)cc3)ccc12 [Example 44] |  | < 1 µM | < 10 µM
20 | O=Cc1c(O)ccc2nc(-c3ccc(C(=O)NCCN4CCOCC4)cc3)ccc12 [Example 45] |  | < 1 µM | < 10 µM
21 | O=Cc1c(O)ccc2nc(-c3cccc(C(=O)NCCN4CCOCC4)c3)ccc12 [Example 46] | < 10 µM | < 0.1 µM | 
22 | O=Cc1c(O)ccc2nc(SCC(=O)O)[nH]c12 [Example 63] |  | < 0.1 µM | > 10 µM
23 | O=Cc1c(O)ccc2nc(-c3cccc(C(=O)O)c3)[nH]c12 [Example 64] |  | < 0.1 µM | > 10 µM
24 | COC(=O)c1cccc(-c2nc3ccc(O)c(C=O)c3[nH]2)c1 [Example 65] | < 10 µM | < 0.1 µM | 

Row | Compound | EC50 [1] | IC50 [2] | EC50 [1, 3]
25 | Cc1c(-c2ccc(C(=O)N3CCOCC3)cc2)c(=O)oc2c(C=O)c(O)c(Cl)cc12 [Example 67] |  | < 1 µM | > 10 µM
26 | CCOC(=O)c1sc(-c2cc3ccc(O)c(C=O)c3oc2=O)nc1C [Example 68] |  | < 0.1 µM | < 10 µM
27 | Cc1c(CC(=O)O)c(=O)oc2c(C=O)c(O)ccc12 [Example 70] | > 10 µM | < 0.1 µM | 
28 | CCOC(=O)c1cnc(-c2cc3ccc(O)c(C=O)c3oc2=O)s1 [Example 106] |  | < 0.1 µM | < 10 µM
29 | CN1CCN(C(=O)c2cnc(-c3cc4ccc(O)c(C=O)c4oc3=O)s2)CC1 [Example 107] |  | < 0.1 µM | < 10 µM
30 | Cc1nc(-c2cc3ccc(O)c(C=O)c3oc2=O)sc1C(=O)N1CCN(C)CC1 [Example 108] |  | < 0.1 µM | < 10 µM
31 | Cc1nc(-c2cc3ccc(O)c(C=O)c3oc2=O)sc1C(=O)NCCN1CCOCC1 [Example 109] |  | < 0.1 µM | < 10 µM
32 | Cc1nc(-c2c(C)c3ccc(O)c(C=O)c3oc2=O)sc1C(=O)N1CCN(C)CC1 [Example 110] | < 10 µM | < 1 µM | 
33 | COc1cc2c(C)c(-c3ccc(C(=O)N4CCN(C)CC4)cc3)c(=O)oc2c(C=O)c1O [Example 111] |  | < 0.1 µM | < 10 µM
34 | Cc1c(/C=C/C(=O)N2CCN(C)CC2)c(=O)oc2c(C=O)c(O)ccc12 [Example 112] |  | < 0.1 µM | < 10 µM
35 | COc1cc2c(C)c(-c3ccc(N4CCN(C)CC4)nc3)c(=O)oc2c(C=O)c1O [Example 113] | < 10 µM | < 0.1 µM | 
36 | COc1cc2c(C)c(-c3ccc(N4CCOCC4)nc3)c(=O)oc2c(C=O)c1O [Example 114] |  | < 1 µM | < 10 µM
37 | COc1cc2c(C)c(-c3ccc(N(C)C)nc3)c(=O)oc2c(C=O)c1O [Example 115] |  | < 1 µM | < 10 µM
38 | [2H]C(=O)c1c(O)ccc2c(C)c(-c3ccc(C(=O)NCCN4CCOCC4)cc3)c(=O)oc12 [Example 116] |  | < 0.1 µM | < 10 µM
39 | CCc1cc2c(C)c(-c3ccc(C(=O)NCCN4CCOCC4)cc3)c(=O)oc2c(C=O)c1O [Example 117] | < 10 µM | < 1 µM | 
40 | CCc1cc2c(C)c(-c3ccc(C(=O)NCCOC)cc3)c(=O)oc2c(C=O)c1O [Example 118] |  | < 0.1 µM | < 10 µM
41 | CCc1cc2c(C)c(-c3ccc(C(=O)N4CCOCC4)cc3)c(=O)oc2c(C=O)c1O [Example 119] | > 10 µM | < 1 µM | 
42 | COc1cc(O)c(C=O)c2oc(=O)cc(C)c12 [Example 120] | < 10 µM | < 1 µM | 
43 | COCCOc1cc(O)c(C=O)c2oc(=O)cc(C)c12 [Example 121] | < 10 µM | < 0.1 µM | 
44 | COCCOCCc1c(C)c2cc(OC)c(O)c(C=O)c2oc1=O [Example 127] |  | < 0.1 µM | < 10 µM
45 | Cc1c(CC(=O)N2CCOCC2)c(=O)oc2c(C=O)c(O)ccc12 [Example 129] |  | < 0.1 µM | < 10 µM
46 | Cc1c(CC(=O)N2CCN(C)CC2)c(=O)oc2c(C=O)c(O)ccc12 [Example 130] | < 10 µM | < 0.1 µM | 
47 | CCOC(=O)Cc1c(C)c2cc(OC)c(O)c(C=O)c2oc1=O [Example 131] | < 10 µM | < 0.1 µM | 
